From patent US20230085307A1, “PYRIDAZINONE COMPOUND AND HERBICIDE” (NISSAN CHEMICAL CORPORATION, priority 2019, published 2023)

Legend:
Italian ryegrass [1] = test: Test Example 5: herbicidal effect by foliage application, plastic box (Table 20, symbol K); format: in vivo, Italian ryegrass (Lolium multiflorum)
Procedure, shortened: (§1)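 Sow seeds spot-wise in sterilized diluvial soil; cover with ~1.5 cm soil. Grow 14 days in greenhouse, 25° C. to 30° C. Spray foliage with emulsion diluted to predetermined amount. Rate effect after 3 weeks.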

oval-leafed pondweed = test: Test Example 1: herbicidal activity, application before weed generation under submerged conditions (Table 16, symbol C); format: in vivo, oval-leafed pondweed (Monochoria vaginalis)
Procedure, shortened: (§2)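 Emulsion formulation, water-diluted to set dose, was put onto the flooded surface (4 cm depth, alluvial soil) the same day weeds were sown and 2.5-leaf rice transplanted. After 3 weeks at 25-30 °C under glass, each species was rated 0 (≤5% kill) to 5 (≥90% kill).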

lambsquarters [2] = test: Test Example 4: herbicidal effect by soil treatment (Table 19, symbol O); format: in vivo, lambsquarters (Chenopodium album)
Procedure, shortened: (§3)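 Applied as a water-diluted emulsion, the compound was sprayed onto soil covering newly sown seeds. Evaluation came three weeks after application, in a greenhouse held at 25° C. to 30° C.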

chickweed [3] = test: Test Example 5: herbicidal effect by foliage application, plastic box (Table 20, symbol P); format: in vivo, common chickweed (Stellaria media)
Procedure, shortened: as §1

lambsquarters [4] = test: Test Example 5: herbicidal effect by foliage application, plastic box (Table 20, symbol O); format: in vivo, lambsquarters (Chenopodium album)
Procedure, shortened: as §1

green foxtail [5] = test: Test Example 4: herbicidal effect by soil treatment (Table 19, symbol G); format: in vivo, green foxtail (Setaria viridis)
Procedure, shortened: as §3

blackgrass = test: Test Example 5: herbicidal effect by foliage application, plastic box (Table 20, symbol J); format: in vivo, blackgrass (Alopecurus myosuroides)
Procedure, shortened: as §1

southern crabgrass [6] = test: Test Example 5: herbicidal effect by foliage application, plastic box (Table 20, symbol F); format: in vivo, southern crabgrass (Digitaria ciliaris)
Procedure, shortened: as §1

southern crabgrass [7] = test: Test Example 4: herbicidal effect by soil treatment (Table 19, symbol F); format: in vivo, southern crabgrass (Digitaria ciliaris)
Procedure, shortened: as §3

Italian ryegrass [8] = test: Test Example 4: herbicidal effect by soil treatment (Table 19, symbol K); format: in vivo, Italian ryegrass (Lolium multiflorum)
Procedure, shortened: as §3

wild oat [9] = test: Test Example 4: herbicidal effect by soil treatment (Table 19, symbol I); format: in vivo, wild oat (Avena fatua)
Procedure, shortened: as §3

redroot pigweed [10] = test: Test Example 5: herbicidal effect by foliage application, plastic box (Table 20, symbol N); format: in vivo, redroot pigweed (Amaranthus retroflexus)
Procedure, shortened: as §1

Japanese bulrush = test: Test Example 1: herbicidal activity, application before weed generation under submerged conditions (Table 16, symbol B); format: in vivo, Japanese bulrush (Schoenoplectus juncoides)
Procedure, shortened: as §2

rice flat sedge = test: Test Example 3: herbicidal effect by foliage application, Wagner pot (Table 18, symbol E); format: in vivo, rice flat sedge (Cyperus iria); conditions: 320 g/ha
Procedure, shortened: (§4)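 Plants were sown in alluvial soil held under 0.1–0.5 cm standing water and grown 14 days in a greenhouse at 25–30 °C. An emulsifiable formulation, water-diluted to the set dose, was then sprayed onto the foliage, and effects were scored three weeks later using previously defined criteria.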

wild oat [11] = test: Test Example 5: herbicidal effect by foliage application, plastic box (Table 20, symbol I); format: in vivo, wild oat (Avena fatua)
Procedure, shortened: as §1

barnyard grass [12] = test: Test Example 4: herbicidal effect by soil treatment (Table 19, symbol H); format: in vivo, barnyard grass (Echinochloa crus-galli)
Procedure, shortened: as §3

velvetleaf [13] = test: Test Example 4: herbicidal effect by soil treatment (Table 19, symbol M); format: in vivo, velvetleaf (Abutilon theophrasti)
Procedure, shortened: as §3

persian speedwell [14] = test: Test Example 4: herbicidal effect by soil treatment (Table 19, symbol R); format: in vivo, Persian speedwell (Veronica persica)
Procedure, shortened: as §3

late watergrass = test: Test Example 1: herbicidal activity, application before weed generation under submerged conditions (Table 16, symbol A); format: in vivo, late watergrass (Echinochloa oryzicola)
Procedure, shortened: as §2

barnyard grass [15] = test: Test Example 5: herbicidal effect by foliage application, plastic box (Table 20, symbol H); format: in vivo, barnyard grass (Echinochloa crus-galli)
Procedure, shortened: as §1

windgrass [16] = test: Test Example 4: herbicidal effect by soil treatment (Table 19, symbol L); format: in vivo, windgrass (Apera spica-venti)
Procedure, shortened: as §3

velvetleaf [17] = test: Test Example 5: herbicidal effect by foliage application, plastic box (Table 20, symbol M); format: in vivo, velvetleaf (Abutilon theophrasti)
Procedure, shortened: as §1

persian speedwell [18] = test: Test Example 5: herbicidal effect by foliage application, plastic box (Table 20, symbol R); format: in vivo, Persian speedwell (Veronica persica)
Procedure, shortened: as §1

chickweed [19] = test: Test Example 4: herbicidal effect by soil treatment (Table 19, symbol P); format: in vivo, common chickweed (Stellaria media)
Procedure, shortened: as §3

windgrass [20] = test: Test Example 5: herbicidal effect by foliage application, plastic box (Table 20, symbol L); format: in vivo, windgrass (Apera spica-venti)
Procedure, shortened: as §1

green foxtail [21] = test: Test Example 5: herbicidal effect by foliage application, plastic box (Table 20, symbol G); format: in vivo, green foxtail (Setaria viridis)
Procedure, shortened: as §1

Chinese sprangletop = test: Test Example 3: herbicidal effect by foliage application, Wagner pot (Table 18, symbol D); format: in vivo, chinese sprangletop (Leptochloa chinensis); conditions: 320 g/ha
Procedure, shortened: as §4

redroot pigweed [22] = test: Test Example 4: herbicidal effect by soil treatment (Table 19, symbol N); format: in vivo, redroot pigweed (Amaranthus retroflexus)
Procedure, shortened: as §3

barnyard grass [23] = test: Test Example 3: herbicidal effect by foliage application, Wagner pot (Table 18, symbol H); format: in vivo, barnyard grass (Echinochloa crus-galli); conditions: 320 g/ha
Procedure, shortened: as §4

[24] = foliage application, AAH 320 g/ha, three weeks after application
[25] = amount of applied herbicide 320 g/ha, foliage application after 14-day growth, evaluated three weeks after application
[26] = amount of applied herbicide 320 g/ha

CCCC(=O)Oc1c(C)nn(C)c(=O)c1-c1c(-c2ccccc2OCOC)sc2ccccc12 [1-115]
K: Italian ryegrass, herbicidal effect (Italian ryegrass [1]; [24]): 0 (Herbicidal rate of 5% or less (almost no effect)) | Herbicidal effect on C: oval-leafed pondweed (grade 0-5) (oval-leafed pondweed; 320 g/ha applied herbicide): 2 (Herbicidal rate of 20% or more and less than 40%) | O: lambsquarters, herbicidal effect rating (lambsquarters [2]; AAH 320 g/ha): 0 (Herbicidal rate of 5% or less (almost no effect)) | P: chickweed, herbicidal effect (chickweed [3]; [24]): 5 (Herbicidal rate of 90% or more (almost completely withered)) | O: lambsquarters, herbicidal effect (lambsquarters [4]; [24]): 2 (Herbicidal rate of 20% or more and less than 40%) | G: green foxtail, herbicidal effect rating (green foxtail [5]; AAH 320 g/ha): 0 (Herbicidal rate of 5% or less (almost no effect)) | J: blackgrass, herbicidal effect (blackgrass; [24]): 4 (Herbicidal rate of 70% or more and less than 90%) | F: southern crabgrass, herbicidal effect (southern crabgrass [6]; [24]): 4 (Herbicidal rate of 70% or more and less than 90%) | F: southern crabgrass, herbicidal effect rating (southern crabgrass [7]; AAH 320 g/ha): 0 (Herbicidal rate of 5% or less (almost no effect)) | K: Italian ryegrass, herbicidal effect rating (Italian ryegrass [8]; AAH 320 g/ha): 0 (Herbicidal rate of 5% or less (almost no effect)) | I: wild oat, herbicidal effect rating (wild oat [9]; AAH 320 g/ha): 0 (Herbicidal rate of 5% or less (almost no effect)) | N: redroot pigweed, herbicidal effect (redroot pigweed [10]; [24]): 5 (Herbicidal rate of 90% or more (almost completely withered)) | Herbicidal effect on B: Japanese bulrush (grade 0-5) (Japanese bulrush; 320 g/ha applied herbicide): 0 (Herbicidal rate of 5% or less (almost no effect)) | herbicidal effect on E (rice flat sedge), rating 0-5 (rice flat sedge): 2 (Herbicidal rate of 20% or more and less than 40%) | I: wild oat, herbicidal effect (wild oat [11]; [24]): 2 (Herbicidal rate of 20% or more and less than 40%) | H: barnyard grass, herbicidal effect rating (barnyard grass [12]; AAH 320 g/ha): 2 (Herbicidal rate of 20% or more and less than 40%) | M: velvetleaf, herbicidal effect rating (velvetleaf [13]; AAH 320 g/ha): 0 (Herbicidal rate of 5% or less (almost no effect)) | R: persian speedwell, herbicidal effect rating (persian speedwell [14]; AAH 320 g/ha): 0 (Herbicidal rate of 5% or less (almost no effect)) | Herbicidal effect on A: late watergrass (grade 0-5) (late watergrass; 320 g/ha applied herbicide): 2 (Herbicidal rate of 20% or more and less than 40%) | H: barnyard grass, herbicidal effect (barnyard grass [15]; [24]): 2 (Herbicidal rate of 20% or more and less than 40%) | L: windgrass, herbicidal effect rating (windgrass [16]; AAH 320 g/ha): 0 (Herbicidal rate of 5% or less (almost no effect)) | M: velvetleaf, herbicidal effect (velvetleaf [17]; [24]): 3 (Herbicidal rate of 40% or more and less than 70%) | R: persian speedwell, herbicidal effect (persian speedwell [18]; [24]): 2 (Herbicidal rate of 20% or more and less than 40%) | P: chickweed, herbicidal effect rating (chickweed [19]; AAH 320 g/ha): 0 (Herbicidal rate of 5% or less (almost no effect)) | L: windgrass, herbicidal effect (windgrass [20]; [24]): 4 (Herbicidal rate of 70% or more and less than 90%) | G: green foxtail, herbicidal effect (green foxtail [21]; [24]): 4 (Herbicidal rate of 70% or more and less than 90%) | herbicidal effect on D (Chinese sprangletop), rating 0-5 (Chinese sprangletop): 2 (Herbicidal rate of 20% or more and less than 40%) | N: redroot pigweed, herbicidal effect rating (redroot pigweed [22]; AAH 320 g/ha): 3 (Herbicidal rate of 40% or more and less than 70%) | herbicidal effect on H (barnyard grass), rating 0-5 (barnyard grass [23]): 4 (Herbicidal rate of 70% or more and less than 90%)

COCOc1ccccc1-c1sc2c(Cl)cccc2c1-c1c(O)c(C)nn(C)c1=O [4-083]
Herbicidal effect by foliage application, K: Italian ryegrass (Italian ryegrass [1]; [25]): 0 (Herbicidal rate of 5% or less (almost no effect)) | Herbicidal effect, C: oval-leafed pondweed (oval-leafed pondweed; [26]): 0 (Herbicidal rate of 5% or less (almost no effect)) | Herbicidal effect by soil treatment, O: lambsquarters (lambsquarters [2]; [26]): 0 (Herbicidal rate of 5% or less (almost no effect)) | Herbicidal effect by foliage application, P: chickweed (chickweed [3]; [25]): 5 (Herbicidal rate of 90% or more (almost completely withered)) | Herbicidal effect by foliage application, O: lambsquarters (lambsquarters [4]; [25]): 1 (Herbicidal rate of 5% or more and less than 20%) | Herbicidal effect by soil treatment, G: green foxtail (green foxtail [5]; [26]): 0 (Herbicidal rate of 5% or less (almost no effect)) | Herbicidal effect by foliage application, J: blackgrass (blackgrass; [25]): 0 (Herbicidal rate of 5% or less (almost no effect)) | Herbicidal effect by foliage application, F: southern crabgrass (southern crabgrass [6]; [25]): 3 (Herbicidal rate of 40% or more and less than 70%) | Herbicidal effect by soil treatment, F: southern crabgrass (southern crabgrass [7]; [26]): 0 (Herbicidal rate of 5% or less (almost no effect)) | Herbicidal effect by soil treatment, K: Italian ryegrass (Italian ryegrass [8]; [26]): 0 (Herbicidal rate of 5% or less (almost no effect)) | Herbicidal effect by soil treatment, I: wild oat (wild oat [9]; [26]): 0 (Herbicidal rate of 5% or less (almost no effect)) | Herbicidal effect by foliage application, N: redroot pigweed (redroot pigweed [10]; [25]): 1 (Herbicidal rate of 5% or more and less than 20%) | Herbicidal effect, B: Japanese bulrush (Japanese bulrush; [26]): 0 (Herbicidal rate of 5% or less (almost no effect)) | herbicidal effect on rice flat sedge (E) (rice flat sedge): 5 (Herbicidal rate of 90% or more (almost completely withered)) | Herbicidal effect by foliage application, I: wild oat (wild oat [11]; [25]): 0 (Herbicidal rate of 5% or less (almost no effect)) | Herbicidal effect by soil treatment, H: barnyard grass (barnyard grass [12]; [26]): 1 (Herbicidal rate of 5% or more and less than 20%) | Herbicidal effect by soil treatment, M: velvetleaf (velvetleaf [13]; [26]): 1 (Herbicidal rate of 5% or more and less than 20%) | Herbicidal effect by soil treatment, R: persian speedwell (persian speedwell [14]; [26]): 3 (Herbicidal rate of 40% or more and less than 70%) | Herbicidal effect, A: late watergrass (late watergrass; [26]): 3 (Herbicidal rate of 40% or more and less than 70%) | Herbicidal effect by foliage application, H: barnyard grass (barnyard grass [15]; [25]): 4 (Herbicidal rate of 70% or more and less than 90%) | Herbicidal effect by soil treatment, L: windgrass (windgrass [16]; [26]): 0 (Herbicidal rate of 5% or less (almost no effect)) | Herbicidal effect by foliage application, M: velvetleaf (velvetleaf [17]; [25]): 3 (Herbicidal rate of 40% or more and less than 70%) | Herbicidal effect by foliage application, R: persian speedwell (persian speedwell [18]; [25]): 5 (Herbicidal rate of 90% or more (almost completely withered)) | Herbicidal effect by soil treatment, P: chickweed (chickweed [19]; [26]): 3 (Herbicidal rate of 40% or more and less than 70%) | Herbicidal effect by foliage application, L: windgrass (windgrass [20]; [25]): 4 (Herbicidal rate of 70% or more and less than 90%) | Herbicidal effect by foliage application, G: green foxtail (green foxtail [21]; [25]): 3 (Herbicidal rate of 40% or more and less than 70%) | herbicidal effect on Chinese sprangletop (D) (Chinese sprangletop): 4 (Herbicidal rate of 70% or more and less than 90%) | Herbicidal effect by soil treatment, N: redroot pigweed (redroot pigweed [22]; [26]): 3 (Herbicidal rate of 40% or more and less than 70%) | herbicidal effect on barnyard grass (H) (barnyard grass [23]): 5 (Herbicidal rate of 90% or more (almost completely withered))
